Laboratory results as given in paper PMC11089506 (Journal of Medicinal Chemistry, 2024).
pEC50, pIC50, pKi: −log10 of the molar value. Where two headings read alike, the source gives them in different places.

Columns and labels:
human 5-HT2BR = biological target: T1, human 5-HT2BR (Homo sapiens, UniProt P41595); test: [125I]DOI competition binding assay
T1 construct: host or cells: HEK293 (membrane homogenates)
Experimental: (§1) Following incubation, the samples were filtered rapidly under vacuum through glass fiber filters (GF/B, Packard) presoaked with 0.3% polyethylenimine and rinsed several times with ice cold wash buffer (50 mM Tris-HCl, pH 7.4) using a 96-sample cell harvester (Unifilter, Packard). The filters were dried and then counted for radioactivity in a scintillation counter (Topcounter, Packard) using a scintillation cocktail (Microscint-0, Packard).

human 5-HT2CR [1] = biological target: T2, human 5-HT2CR (Homo sapiens, UniProt P28335); test: [125I]DOI competition binding assay
Experimental: as §1

human 5-HT2AR = human 5-HT2AR (Homo sapiens, UniProt P28223); test: Ca2+/Fluo-4 assay, agonist mode, stable 5-HT2AR-HEK293 cells; conditions: for 5-HT2AR pEC50 ± S.E.M. / 5-HT2AR Rmax ± S.E.M.: Table S2; for pEC50: read-out: 5-HT2AR EC50; for 5-HT2AR Rmax (%): % of the 5-HT Rmax; for 5-HT2AR Rmax ± S.E.M.: % of the 5-HT Rmax on the same 96-well plate
human 5-HT2CR [2] = biological target: T2, human 5-HT2CR; test: Ca2+/Fluo-4 assay, agonist mode, stable 5-HT2CR-HEK293 cells; conditions: for EC50: 5-HT2CR EC50 (nM)
human 5-HT2CR [3] = biological target: T2, human 5-HT2CR; test: Ca2+/Fluo-4 assay, antagonist mode (5-HT EC90 as agonist), stable 5-HT2CR-HEK293 cells
MDR1 (P-gp) = test: MDR1-MDCK II permeability assay; type: in vitro ADME; conditions: dog, MDCK-MDR1, pH 7.4
MDR1-MDCKII = test: MDR1-MDCK II permeability assay; type: in vitro ADME; conditions: Table S6
MDR1 = test: MDR1-MDCK II permeability assay; type: in vitro ADME; conditions: dog, MDCK-MDR1, pH 7.4, Table S6
[4] = system: 5-HT2AR, 5-HT2BR, and 5-HT2CR; conditions: cited from earlier work
[5] = Table 1, at least 3 independent experiments
[6] = 5-HT2CR pIC50 ± S.E.M., Table S2
[7] = Table 2, at least 3 independent experiments
[8] = read-out: 5-HT2CR EC50, Table 2, at least 3 independent experiments

Chain of human 5-HT2AR (P28223 whole entry): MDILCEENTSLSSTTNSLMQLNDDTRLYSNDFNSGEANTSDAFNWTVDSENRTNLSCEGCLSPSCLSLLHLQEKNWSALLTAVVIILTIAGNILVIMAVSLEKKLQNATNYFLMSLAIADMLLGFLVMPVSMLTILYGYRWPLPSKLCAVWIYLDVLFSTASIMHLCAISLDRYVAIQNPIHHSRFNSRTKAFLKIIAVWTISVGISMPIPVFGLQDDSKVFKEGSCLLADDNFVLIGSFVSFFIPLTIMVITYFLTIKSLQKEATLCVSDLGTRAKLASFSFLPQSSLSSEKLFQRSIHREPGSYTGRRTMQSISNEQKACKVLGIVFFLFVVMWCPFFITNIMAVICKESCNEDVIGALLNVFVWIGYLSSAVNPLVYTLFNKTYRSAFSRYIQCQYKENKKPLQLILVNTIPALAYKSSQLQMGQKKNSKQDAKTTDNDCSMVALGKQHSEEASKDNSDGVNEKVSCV
T2 sequence (P28335 33-458): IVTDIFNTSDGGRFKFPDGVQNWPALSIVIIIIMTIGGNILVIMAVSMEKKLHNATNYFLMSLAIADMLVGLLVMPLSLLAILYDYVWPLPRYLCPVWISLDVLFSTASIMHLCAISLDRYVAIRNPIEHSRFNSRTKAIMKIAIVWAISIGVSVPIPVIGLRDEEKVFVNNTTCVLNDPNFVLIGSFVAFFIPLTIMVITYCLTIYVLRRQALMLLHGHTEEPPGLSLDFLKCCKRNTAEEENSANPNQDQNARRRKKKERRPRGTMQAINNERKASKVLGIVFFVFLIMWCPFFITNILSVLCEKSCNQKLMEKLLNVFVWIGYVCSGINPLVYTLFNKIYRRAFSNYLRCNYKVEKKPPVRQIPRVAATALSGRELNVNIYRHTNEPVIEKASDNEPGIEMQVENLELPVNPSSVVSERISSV
T1 sequence (P41595 whole entry): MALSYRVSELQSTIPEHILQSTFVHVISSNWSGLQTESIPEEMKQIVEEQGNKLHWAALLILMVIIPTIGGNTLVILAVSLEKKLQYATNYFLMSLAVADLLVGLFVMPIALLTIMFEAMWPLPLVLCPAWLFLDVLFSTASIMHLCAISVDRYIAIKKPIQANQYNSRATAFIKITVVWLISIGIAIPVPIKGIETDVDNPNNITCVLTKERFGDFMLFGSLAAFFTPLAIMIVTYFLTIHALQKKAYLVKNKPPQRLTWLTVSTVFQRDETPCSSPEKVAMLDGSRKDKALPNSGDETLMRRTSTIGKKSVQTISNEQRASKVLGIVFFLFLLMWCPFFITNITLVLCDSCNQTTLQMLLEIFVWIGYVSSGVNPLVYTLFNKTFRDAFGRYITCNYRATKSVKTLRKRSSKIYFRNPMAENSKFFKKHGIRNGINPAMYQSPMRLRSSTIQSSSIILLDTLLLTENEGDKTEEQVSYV

COc1cc(CC(C)N)c(OC)cc1I (racemic) [(±)-DOI, 1-(4-iodo-2,5-dimethoxyphenyl)propan-2-amine, reference compound]
pKi (human 5-HT2BR): 8.91
pKi (human 5-HT2CR [1]): 9.29

COc1cc(C2CCCNC2)c(OC)cc1Br (centres unmarked) [Compound 6eu, 3-(4-Bromo-2,5-dimethoxyphenyl)piperidine]
EC50 (human 5-HT2AR; 5-HT2AR EC50 (nM), Table 1, at least 3 independent experiments): 69 nM
agonist activity at 5-HT2CR (in words) (human 5-HT2CR [2]): devoid of measurable agonist activity
EC50 (human 5-HT2CR [2]; [5]): > 50000 nM
pIC50 (human 5-HT2CR [3]; 5-HT2CR IC50, Table 1): 6.19
pIC50 (human 5-HT2CR [3]; [6]): 6.20

COc1cc(C2CCCNC2)c(OC)cc1Cl (centres unmarked) [Compound 8eu, 3-(4-Chloro-2,5-dimethoxyphenyl)piperidine]
5-HT2AR pEC50 ± S.E.M. (human 5-HT2AR): 7.18 ± 0.05
pEC50 (human 5-HT2AR; [5]): 7.18
EC50 (human 5-HT2CR [2]; [5]): > 50000 nM
pIC50 (human 5-HT2CR [3]; [6]): 6.06

COc1cc(C2CCCNC2)c(OC)cc1I (centres unmarked) [Compound 9eu, 3-(4-Iodo-2,5-dimethoxyphenyl)piperidine]
5-HT2AR pEC50 ± S.E.M. (human 5-HT2AR): 7.43 ± 0.02
pEC50 (human 5-HT2AR; [5]): 7.43
EC50 (human 5-HT2CR [2]; [5]): > 50000 nM
pIC50 (human 5-HT2CR [3]; [6]): 5.96

COc1cc(C2CCCNC2)c(OC)cc1C#N (centres unmarked) [Compound 10eu, 2,5-Dimethoxy-4-(piperidin-3-yl)benzonitrile]
5-HT2AR pEC50 ± S.E.M. (human 5-HT2AR): 6.56 ± 0.13
pEC50 (human 5-HT2AR; [5]): 6.57
EC50 (human 5-HT2CR [2]; [5]): > 50000 nM
pIC50 (human 5-HT2CR [3]; [6]): ~4.80

COc1cc(C2CCCNC2)ccc1C(F)(F)F.Cl (centres unmarked) [Compound 23dis, 3-(3-Methoxy-4-(trifluoromethyl)phenyl)piperidine Hydrochloride]
5-HT2AR Rmax (%) (human 5-HT2AR; Table 2): 65%
5-HT2AR pEC50 ± S.E.M. (human 5-HT2AR): 5.61 ± 0.07
5-HT2AR Rmax ± S.E.M. (human 5-HT2AR): 65 ± 3%
pEC50 (human 5-HT2AR; [7]): 5.60
5-HT2CR Rmax (%) (human 5-HT2CR [2]; Table 2, % of the 5-HT Rmax): 35%
5-HT2CR pEC50 ± S.E.M. (human 5-HT2CR [2]; Table S2): 5.85 ± 0.13
5-HT2CR Rmax ± S.E.M. (human 5-HT2CR [2]; Table S2, % of the 5-HT Rmax on the same 96-well plate): 35 ± 3%
pEC50 (human 5-HT2CR [2]; [8]): 5.85

COc1cc(C2CCCNC2)ccc1C(F)(F)F.Cl (centres unmarked) [Compound 23eu, 3-(3-Methoxy-4-(trifluoromethyl)phenyl)piperidine Hydrochloride]
5-HT2AR Rmax (%) (human 5-HT2AR; Table 2): 68%
5-HT2AR pEC50 ± S.E.M. (human 5-HT2AR): 5.74 ± 0.09
5-HT2AR Rmax ± S.E.M. (human 5-HT2AR): 68 ± 7%
pEC50 (human 5-HT2AR; [7]): 5.74
EC50 (human 5-HT2CR [2]; [7]): > 10000 nM

CCOc1cc(C(F)(F)F)c(OC)cc1C1CCCNC1.Cl (centres unmarked) [Compound 24dis, 3-(2-Ethoxy-5-methoxy-4-(trifluoromethyl)phenyl)piperidine Hydrochloride]
5-HT2AR Rmax (%) (human 5-HT2AR; Table 2): 77%
5-HT2AR pEC50 ± S.E.M. (human 5-HT2AR): 6.39 ± 0.08
5-HT2AR Rmax ± S.E.M. (human 5-HT2AR): 77 ± 7%
pEC50 (human 5-HT2AR; [7]): 6.39
EC50 (human 5-HT2CR [2]; [7]): > 10000 nM
5-HT2CR pEC50 ± S.E.M. (human 5-HT2CR [2]; Table S2): 5.56 ± 0.02
pEC50 (human 5-HT2CR [2]; read-out: 5-HT2CR EC50, Table S2): 5.57

CCOc1cc(C(F)(F)F)c(OC)cc1C1CCCNC1.Cl (centres unmarked) [Compound 24eu, 3-(2-Ethoxy-5-methoxy-4-(trifluoromethyl)phenyl)piperidine Hydrochloride]
5-HT2AR Rmax (%) (human 5-HT2AR; Table 2): 40%
5-HT2AR pEC50 ± S.E.M. (human 5-HT2AR): 7.42 ± 0.10
5-HT2AR Rmax ± S.E.M. (human 5-HT2AR): 40 ± 3%
pEC50 (human 5-HT2AR; [7]): 7.42
pEC50 (human 5-HT2CR [2]; 5-HT2CR EC50, Table S2): < 5.00

CCOc1cc(C2CCCNC2)c(OC)cc1C(F)(F)F.Cl (centres unmarked) [Compound 25dis, 3-(5-Ethoxy-2-methoxy-4-(trifluoromethyl)phenyl)piperidine Hydrochloride]
5-HT2AR Rmax (%) (human 5-HT2AR; Table 2): 86%
5-HT2AR pEC50 ± S.E.M. (human 5-HT2AR): 6.50 ± 0.10
5-HT2AR Rmax ± S.E.M. (human 5-HT2AR): 86 ± 6%
pEC50 (human 5-HT2AR; [7]): 6.49
EC50 (human 5-HT2CR [2]; [7]): > 10000 nM

CCOc1cc(C2CCCNC2)c(OC)cc1C(F)(F)F.Cl (centres unmarked) [Compound 25eu, 3-(5-Ethoxy-2-methoxy-4-(trifluoromethyl)phenyl)piperidine Hydrochloride]
5-HT2AR Rmax (%) (human 5-HT2AR; Table 2): 95%
5-HT2AR pEC50 ± S.E.M. (human 5-HT2AR): 7.99 ± 0.11
5-HT2AR Rmax ± S.E.M. (human 5-HT2AR): 95 ± 1%
pEC50 (human 5-HT2AR; [7]): 8.00
5-HT2CR pEC50 ± S.E.M. (human 5-HT2CR [2]; Table S2): 6.54 ± 0.04
pEC50 (human 5-HT2CR [2]; [8]): 6.54

CCOc1cc(C(F)(F)F)c(OCC)cc1C1CCCNC1.Cl (centres unmarked) [Compound 26dis, 3-(2,5-Diethoxy-4-(trifluoromethyl)phenyl)piperidine Hydrochloride]
5-HT2AR Rmax (%) (human 5-HT2AR; Table 2): 69%
5-HT2AR pEC50 ± S.E.M. (human 5-HT2AR): 5.52 ± 0.06
5-HT2AR Rmax ± S.E.M. (human 5-HT2AR): 69 ± 4%
pEC50 (human 5-HT2AR; [7]): 5.52
pEC50 (human 5-HT2CR [2]; [8]): < 5.00

CCOc1cc(C(F)(F)F)c(OCC)cc1C1CCCNC1.Cl (centres unmarked) [Compound 26eu, 3-(2,5-Diethoxy-4-(trifluoromethyl)phenyl)piperidine Hydrochloride]
5-HT2AR Rmax (%) (human 5-HT2AR; Table 2): 47%
5-HT2AR pEC50 ± S.E.M. (human 5-HT2AR): 6.99 ± 0.07
5-HT2AR Rmax ± S.E.M. (human 5-HT2AR): 47 ± 6%
pEC50 (human 5-HT2AR; [7]): 7.00
fold drop in agonist potency (fold higher EC50) at 5-HT2AR (human 5-HT2AR; relative to (S)-11): 30 fold
EC50 (human 5-HT2CR [2]; [7]): > 10000 nM

C[C@H]1O[C@@H](O[C@H]2[C@@H](O)C[C@H](O[C@H]3[C@@H](O)C[C@H](O[C@H]4CC[C@@]5(C)[C@H](CC[C@@H]6[C@@H]5C[C@@H](O)[C@]5(C)[C@@H](C7=CC(=O)OC7)CC[C@]65O)C4)O[C@@H]3C)O[C@@H]2C)C[C@H](O)[C@@H]1O [Digoxin]
Papp A→B at […] (MDR1 (P-gp)): 0.22 ×10⁻⁶ cm/s
Papp B→A at […] (MDR1 (P-gp)): 12.4 ×10⁻⁶ cm/s
Rank Papp (MDR1-MDCKII): Low
recovery at […] (MDR1; read-out: Mean Recovery B to A): 92%

COCCc1ccc(OCC(O)CNC(C)C)cc1 (centres unmarked) [Metoprolol]
Papp A→B at […] (MDR1 (P-gp)): 24.2 ×10⁻⁶ cm/s
Rank Papp (MDR1-MDCKII): High
recovery at […] (MDR1; read-out: Mean Recovery A to B): 97%

CC(C)(C)NCC(O)COc1cccc2c1CC(O)C(O)C2 (centres unmarked) [Nadolol]
Papp A→B at […] (MDR1 (P-gp)): 0.54 ×10⁻⁶ cm/s
Rank Papp (MDR1-MDCKII): Low
recovery at […] (MDR1; read-out: Mean Recovery A to B): 93%

CN(C)CCc1c[nH]c2cccc(O)c12 [psilocin]
agonist profile at 5-HT2AR, 5-HT2BR, and 5-HT2CR (in words) [4]: equipotent and equiefficacious agonist
